The text below walks through data of patent US20150178471A1, “IMPROVED CLINICAL EFFECT OF PHARMACEUTICAL PRODUCTS USING COMMUNICATION TOOL AND LIFE-STYLE FACTORS” (SCIENTIFICMED SWEDEN AB, priority 2012, published 2015).

The conditions of this experiment: no combination product.

Text: Development and test of a combination product based on the pharmaceutical Zoloft and a specifically adapted QFM, including life-style improving factors, with a dependent software application • a. Test objectives; improve cardiovascular and diabetes symptoms • b. Main intervention factors; • i. an improved level of physical activity • ii. increased awareness of food intake • iii. an increased well-being based on improved administration of Zoloft • c. Follow-up variables: Weight and HbA1c • d. Period of Time Using the Combination Product: Five Months. • e. Period of time using only the pharmaceutical, i.e. no combination product, prior to the period of using the combination product: Two months • f. Period of time using only the software application, i.e. no combination product, after the period of using the combination product: Two weeks
The used set of questions for the specific QFM, including life-style improving factors, in the combination product based on Zoloft was the following: • Adherence to Zoloft: • The patient was asked to answer a question whether or not he/she had been adherent to Zoloft, and which dose the patient had taken; “I have taken my Zoloft today with the dose 25 mg/50 mg/100 mg/150 mg or 200 mg”. • Physical activity: • The patient was asked initially to set up an individual goal with the purpose of achieving an increased effect. […]

For the molecule `CN[C@H]1CC[C@@H](c2ccc(Cl)c(Cl)c2)c2ccccc21` [Zoloft, Sertralin], the HbA1c entry (test period when the patient only was taking Zoloft (two months)) is reported as “remained stable or slightly increased”. For the same molecule, for the setting “test period when the patient only was taking Zoloft”, the Weight gained is reported as 1-2%.
